Measured values published in BindingDB's records for doi:10.1080/14756360801915476 (Instituto De Parastiologia Y Biomedicina "Lopez-Neyra, 2009).
pKi: −log10 of the molar value.

Legend:
Test in all cases: Inhibition Assay
Settings in all cases: pH 8; 25 °C
[1] = target: T1, Deoxyuridine 5'-triphosphate nucleotidohydrolase (Plasmodium falciparum (isolate 3D7), UniProt Q8II92)
T1 sequence (Q8II92 whole entry): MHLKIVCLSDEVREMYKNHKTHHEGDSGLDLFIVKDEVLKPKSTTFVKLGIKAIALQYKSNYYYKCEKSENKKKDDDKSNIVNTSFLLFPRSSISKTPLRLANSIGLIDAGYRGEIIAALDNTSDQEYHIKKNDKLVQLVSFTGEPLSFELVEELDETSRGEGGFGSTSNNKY
Description: (§1) Nucleotide hydrolysis was monitored by mixing enzyme and substrate with a rapid kinetic accessory (Hi-Tech Scientific) attached to a spectrophotometer (Cary 50). Protons, released through the hydrolysis of nucleotides, were neutralized with […] and monitored spectrophotometrically at the absorbance peak of the basic form of the indicator.

[2] = target: T2, Deoxyuridine 5'-triphosphate nucleotidohydrolase, mitochondrial (Homo sapiens, UniProt P33316)
T2 sequence (P33316 whole entry): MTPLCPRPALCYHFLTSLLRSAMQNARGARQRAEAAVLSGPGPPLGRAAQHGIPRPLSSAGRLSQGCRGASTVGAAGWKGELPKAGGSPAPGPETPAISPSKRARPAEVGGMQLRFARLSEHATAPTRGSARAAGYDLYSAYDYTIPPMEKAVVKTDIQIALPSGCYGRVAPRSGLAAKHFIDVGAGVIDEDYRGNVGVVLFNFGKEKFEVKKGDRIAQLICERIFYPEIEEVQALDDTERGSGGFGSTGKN
Description: as §1

dCTP deaminase = target: T3, dCTP deaminase (Campylobacter jejuni subsp. jejuni serotype O:2 (strain ATCC 700819 / NCTC 11168), UniProt Q9PN07)
T3 sequence (Q9PN07 whole entry): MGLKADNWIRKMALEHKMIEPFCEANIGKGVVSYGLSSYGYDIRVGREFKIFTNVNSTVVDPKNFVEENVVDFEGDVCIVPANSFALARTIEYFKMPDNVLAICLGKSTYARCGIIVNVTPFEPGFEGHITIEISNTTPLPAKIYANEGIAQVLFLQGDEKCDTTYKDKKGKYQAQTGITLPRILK
Description: as §1

CC(C)(C)[Si](OCC1C=CC(n2ccc(=O)[nH]c2=O)O1)(c1ccccc1)c1ccccc1 (stereo not drawn) [dUTPase inhibitor, 5]
pKi [1]: 5.94 | pKi [2]: < 3.00

CC(C)(C)[Si](C)(C)OCC1OC(n2ccc(=O)[nH]c2=O)CC1F (stereo not drawn) [dUTPase inhibitor, 6]
pKi [1]: 5.20 | pKi [2]: < 3.00

CC(C)(C)[Si](OCC1OC(n2ccc(=O)[nH]c2=O)CC1O)(c1ccccc1)c1ccccc1 (stereo not drawn)
pKi [1]: 5.38 | pKi [2]: 3.09

O=c1ccn(C2CC(O)C(CO[Si](c3ccccc3)(c3ccccc3)c3ccccc3)O2)c(=O)[nH]1 (stereo not drawn)
pKi [1]: 5.55 | pKi [2]: 3.04

O=c1ccn(C2CC(O)C(COP(=O)(Oc3ccccc3)Oc3ccccc3)O2)c(=O)[nH]1 (stereo not drawn) [dUTPase inhibitor, 1]
pKi [1]: 3.62 | pKi [2]: 3.87 | pKi (dCTP deaminase): 3.00

CC(C)[Si](OCC1OC(n2ccc(=O)[nH]c2=O)CC1O)(C(C)C)C(C)C (stereo not drawn)
pKi [1]: 3.64 | pKi [2]: 3.00

O=C(OCC1C=CC(n2ccc(=O)[nH]c2=O)O1)C12CC3CC(CC(C3)C1)C2 (stereo not drawn) [dUTPase inhibitor, 3]
pKi [1]: 4.24 | pKi [2]: 3.53 | pKi (dCTP deaminase): 3.26

O=c1ccn(C2CC(O)C(CNCc3ccccc3)O2)c(=O)[nH]1 (stereo not drawn)
pKi [2]: 3.00

O=c1ccn(C2C=CC(COC(c3ccccc3)(c3ccccc3)c3ccccc3)O2)c(=O)[nH]1 (stereo not drawn) [dUTPase inhibitor, 2]
pKi (dCTP deaminase): 3.00
